Results reported in patent publication US8063043B2, “Salts of N-[6-cis-2,6-dimethylmorpholin-4-yl)pyridine-3-yl]-2-methyl-4′-(trifluoromethoxy)[1,1′-biphenyl]-3-carboxamide” (Novartis AG, priority 2008, dated 2011).
“And” between values parts separate entries of the source, which are not always exact repeats. Equal entries are not always repeated. Where two headings read alike, the source gives them in different places.

Tests used:
[1] = Rat PK of suspension formulations, free form vs diphosphate salt; assay type: in vivo
[2] = Stability: appearance color (CL); assay type: physicochemical
[3] = Thermogravimetry (weight loss / loss on drying); assay type: physicochemical; details: at 150° C.
[4] = pH of 1% solution or suspension; assay type: physicochemical; details: In water
Method: The solutions were stirred continuously as the pH was measured.

[5] = Bulk corrosivity with stainless steel coupon; assay type: physicochemical; details: 2 day 80% r.h. with stainless steel coupon; change in the surface of the coupon
[6] = Solid form after stress test (XRPD/DSC); assay type: physicochemical
[7] = Wistar rats, 10 mg/kg, suspension
[8] = Crystal modification after 72 hours vibration (polymorphism behavior of slurries); assay type: physicochemical
Excerpt: The slurries were filtered and the solids collected for XRPD analyses.

[9] = Approximate solubility at 25° C.; details: thermodynamic from solid
[10] = in vivo; details: Wistar, rat, 10 mg/kg, Wistar rats, suspension
[11] = Hygroscopicity, DVS sorption/desorption isotherms; assay type: physicochemical; details: for DVS Desorp. Weight % chg. / DVS Sorp. Weight % chg.: 25° C.
Method: Sorption/desorption isotherms: Instrument, Surface Measurement System DVS-1 temperature at 25±0.5° C.

[12] = Stability measured by degradation products (DP, HPLC area-%); assay type: physicochemical
Method: DPs are analyzed by HPLC (method see Table 3). They are calculated as area-% products. Compositions of the mixtures in mass % are as follows.
For salts in water, acetonitrile was added to dilute the 0.2% slurry to 0.1% clear solution. For salts in methanol, acetonitrile or acetonitrile/water (50:50, v/v), the corresponding solvent or solvent mixture was added to dilute the 0.2% slurry to 0.1% clear solution. For salts in 0.5% CMC, HPMC cellulose 4000 0.5%, or Tween 80, 0.8%, tetrahydrofuran and water were added to dilute the 2% slurry to 0.1% clear solution and to reach tetrahydrofuran/water 50:50 (v/v). For bulk stability samples (including the samples in excipient mixtures), acetonitrile/water (80:20, v/v) was added to make 0.1% clear solution.

[13] = 3.0 mg/kg PO dose in suspension, mean
[14] = in vivo, 3.0 mg/kg PO dose in suspension, mean
[15] = in vivo, IV 3 mg/kg, mean, n = 2
[16] = individual rats, listed as Compound A Sulfate, monosulfate salt

## Cc1c(C(=O)Nc2ccc(N3C[C@@H](C)O[C@@H](C)C3)nc2)cccc1-c1ccc(OC(F)(F)F)cc1 [Free base]
[1]; [13]
  AUCinf/dose: 171 nM·h/mg/kg
  AUClast/dose: 170 nM·h/mg/kg
  Cmax/Dose: 78.9 nM/mg/kg
[1]; IV 3 mg/kg, mean, n = 2
  AUCinf/dose: 5840 nM·h/mg/kg
  AUClast/dose: 5830 nM·h/mg/kg
[1]; in vivo, 3.0 mg/kg PO dose in suspension
  bioavailability: 3%
[1]; [14]
  AUC(0-inf): 0.512 µM·h
  AUC(0-t): 0.51 µM·h
  tmax: 0.5 h
[1]; in vivo, 3.0 mg/kg PO dose in suspension, mean, read-out: C0/Cmax
  Cmax: 0.237 µM
[1]; [15]
  AUC(0-inf): 17.5 µM·h
  AUC(0-t): 17.5 µM·h
[1]; in vivo, IV 3 mg/kg, mean, n = 2, read-out: C0/Cmax
  Cmax: 6.11 µM

## Cc1c(C(=O)Nc2ccc(N3C[C@@H](C)O[C@@H](C)C3)nc2)cccc1-c1ccc(OC(F)(F)F)cc1.O=S(=O)(O)O [Sulfate, mono]
[2]; 0.2% solutions or suspensions, 2 week 50° C., Acetonitrile/Water (50:50), clear solution after stress test (*)
  CL: A *
[2]; 0.2% solutions or suspensions, 2 week 50° C., Acetonitrile, clear solution after stress test (*)
  CL: A *
[2]; 0.2% solutions or suspensions, 2 week 50° C., Methanol, clear solution after stress test (*)
  CL: A *
[2]; 0.2% solutions or suspensions, 2 week 50° C., Water, suspension (↓)
  CL: A ↓
[2]; 2% (or 5%) solutions or suspensions, 1 day room temperature, 0.5% CMC, suspension (↓)
  CL: A ↓
[2]; 2% (or 5%) solutions or suspensions, 1 day room temperature, HPMC Cellulose 4000 0.5%, suspension (↓)
  CL: A ↓
[2]; 2% (or 5%) solutions or suspensions, 1 day room temperature, Tween 80, 0.8%, suspension (↓)
  CL: A ↓
[3]; Heating rate 10° C./min
  Thermogravimetry (weight loss in %): 1.89% at 150 °C
[3]; Hygroscopicity, as is
  Loss on drying by TGA (%): 1.89 at 150 °C %
[4]
  pH of 1% solution or suspension: 1.45
[5]
  Bulk corrosivity: No visible change
[6]; Solid state, 2 week 50° C., tight container
  Bulk (XRPD): change: No
[6]; Solid state, 2 week 50° C./75% r.h., footnote: new peak in the XRPD pattern compared with unstressed diphosphate
  Bulk (XRPD): change: No
[6]; Solid state, 2 week 80° C., tight container
  Bulk (DSC): change: No
[6]; Solid state, 2 week 80° C./75% r.h., footnote: pattern similar to that of phosphate, with one extra peak
  Bulk (XRPD): change: No
[6]; Xenon light (approx. 1200 kLuxh)
  Bulk (XRPD): change: No
[7]
  less exposure in-vivo than the diphosphate salt: about 40%
[7]; [16]
  AUC0-24/dose: 2590 (ng*h/mL)/(mg/kg/day) and 2870 (ng*h/mL)/(mg/kg/day) and 3620 (ng*h/mL)/(mg/kg/day)
  Cmax: 1860 ng/mL and 3560 ng/mL
  Cmax/Dose: 190 (ng/mL)/(mg/kg/day) (2×) and 360 (ng/mL)/(mg/kg/day)
  tmax: 4 h and 2 h and 1 h
[8]; 0.1N HCl solution
  Crystal modification after 72 hours vibration (DSC/XRPD/TG): XRPD pattern
[8]; Acetonitrile, N—no, Y—yes
  Crystal modification after 72 hours vibration (DSC/XRPD/TG): N, no form change
[8]; Ethanol, N—no, Y—yes
  Crystal modification after 72 hours vibration (DSC/XRPD/TG): N, no form change
[8]; Ethyl acetate, N—no, Y—yes
  Crystal modification after 72 hours vibration (DSC/XRPD/TG): N, no form change
[8]; Iso Propanol, N—no, Y—yes
  Crystal modification after 72 hours vibration (DSC/XRPD/TG): N, no form change
[8]; Water
  Crystal modification after 72 hours vibration (DSC/XRPD/TG): Dissociated to free
  Final pH of slurry: Final pH 1.26
[8]; pH 3 buffer
  Crystal modification after 72 hours vibration (DSC/XRPD/TG): Dissociated to free
  Final pH of slurry: Final pH 2.00
[8]; pH 6.8 buffer
  Crystal modification after 72 hours vibration (DSC/XRPD/TG): Dissociated to free
  Final pH of slurry: Final pH 1.82
[9]; 0.1N HCl, pH 1, simulated gastric fluid
  solubility at 1 day: 3 µg/mL
[9]; 2-propanol, organic solvent or mixture
  solubility at 1 day: 4000 µg/mL
[9]; acetone, organic solvent or mixture
  solubility at 1 day: 1700 µg/mL
[9]; acetonitrile, organic solvent or mixture
  solubility at 1 day: 1400 µg/mL
[9]; ethanol, organic solvent or mixture
  solubility at 1 day: 19700 µg/mL
[9]; ethyl acetate, organic solvent or mixture
  solubility at 1 day: 90 µg/mL
[9]; methanol, organic solvent or mixture
  solubility at 1 day: 24400 µg/mL
[9]; phosphate buffer, pH 6.8, aqueous buffer
  solubility at 1 day: 2 µg/mL
[9]; water
  solubility at 1 day: 7 µg/mL
[10]; Cmax, individual rats
  Cmax: 1900 ng/mL
[10]; mean tmax
  tmax: 2.3 h
[11]
  XRPD after DVS test: No change
[11]; RH 0.0%
  DVS Desorp. Weight % chg.: 1.007%
  DVS Sorp. Weight % chg.: 0.000%
[11]; RH 25.0%
  DVS Desorp. Weight % chg.: 1.256%
  DVS Sorp. Weight % chg.: 1.232%
[11]; RH 50.0%
  DVS Desorp. Weight % chg.: 1.495%
  DVS Sorp. Weight % chg.: 1.455%
[11]; RH 75.0%
  DVS Desorp. Weight % chg.: 1.716%
  DVS Sorp. Weight % chg.: 1.634%
[11]; RH 95.0%
  DVS Desorp. Weight % chg.: 2.330%
  DVS Sorp. Weight % chg.: 2.330%
[12]; 0.2% solutions or suspensions, 2 week 50° C., Acetonitrile
  DP [%]: 0.44%
[12]; 0.2% solutions or suspensions, 2 week 50° C., Acetonitrile/Water (50:50)
  DP [%]: 0.80%
[12]; 0.2% solutions or suspensions, 2 week 50° C., Methanol
  DP [%]: 0.68%
[12]; 0.2% solutions or suspensions, 2 week 50° C., Water
  DP [%]: 0.41%
[12]; 2% (or 5%) solutions or suspensions, 1 day room temperature, 0.5% CMC
  DP [%]: 0.45%
[12]; 2% (or 5%) solutions or suspensions, 1 day room temperature, HPMC Cellulose 4000 0.5%
  DP [%]: 0.47%
[12]; 2% (or 5%) solutions or suspensions, 1 day room temperature, Tween 80, 0.8%
  DP [%]: 0.43%
[12]; 2 weeks 50° C., tight container, 1% in mixture 1 (Lactose/maize starch/Aerosil/Magnesiumstearate)
  DP [%]: 0.41%
[12]; 2 weeks 50° C., tight container, 1% in mixture 2 (Mannitol/Avicel PH 102/Cutina HR)
  DP [%]: 0.44%
[12]; 2 weeks 50° C./75% r.h., 1% in mixture 1
  DP [%]: 0.70%
[12]; 2 weeks 50° C./75% r.h., 1% in mixture 2
  DP [%]: 0.41%
[12]; Solid state, 2 week 50° C., tight container, Bulk (HPLC)
  DP [%]: 0.40%
[12]; Solid state, 2 week 50° C./75% r.h., Bulk (HPLC)
  DP [%]: 0.42%
[12]; Solid state, 2 week 80° C., tight container, Bulk (HPLC)
  DP [%]: 0.43%
[12]; Solid state, 2 week 80° C./75% r.h., Bulk (HPLC)
  DP [%]: 1.34%
[12]; Unstressed drug substance, bulk
  DP [%]: 0.42%
[12]; Xenon light (approx. 1200 kLuxh), Bulk (HPLC)
  DP [%]: 1.1%
